Test [1] has as its system Escherichia coli ATCC 25922. Briefly: Minimum inhibitory concentration (MIC), CLSI broth micro-dilution, E. coli. It is filed as cell-based. Conditions: Escherichia coli, ATCC25922, 22 h, Table 6, cation adjusted Mueller Hinton Broth + 0.002% Tween-80, 35° C. The gist of the method: (§1)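 Colonies grown 20 h at 35° C on Trypticase Soy agar (MRSA) or Luria agar (E. coli) were suspended in cation-adjusted Mueller Hinton broth with 0.002% Tween-80. Suspensions were added at OD600 0.0005 to 10-point twofold compound dilutions, then incubated 22 h at 35° C.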

The test system of test [2] is Methicillin Resistant Staphylococcus aureus strain USA 200. The test can be described thus: Minimum inhibitory concentration (MIC), CLSI broth micro-dilution, S. aureus. It is filed as cell-based. The note with it: Staphylococcus aureus, MRSA / USA200; Table 6; MRSA USA 200; cation adjusted Mueller Hinton Broth + 0.002% Tween-80; 35° C., 22 hours. The method, boiled down: as §1

SMILES strings stand for the structures.

For the compound `Cc1nc(-c2ccc(C(C)(C)C)cc2)c(O)cc1C(=O)N[C@@H](CCN)C(=O)N(C)[C@@H]1C(=O)N[C@@H](C)C(=O)N[C@H](C(=O)NCC#N)Cc2ccc(OCCN)c(c2)-c2cc1ccc2OCCN` (racemic) [Compound 404, rac-(8S,11S,14S)-3,18-bis(2-aminoethoxy)-N-(cyanomethyl)-11-methyl-14-[methyl-[rac-(2S)-4-amino-2-[[6-(4-tert-butylphenyl)-5-hydroxy-2-methyl-pyridine-3-carbonyl]amino]butanoyl]amino]-10,13-dioxo-9,12-diazatricyclo[13.3.1.12,6]icosa-1(18),2(20),3,5,15(19),16-hexaene-8-carboxamide], the minimum inhibitory concentration (MIC) in test [1] worked out at 0.38 µM; in test [2] it was 0.094 µM.

Take `Cc1nc(-c2ccc(C(C)(C)C)cc2)c(N)cc1C(=O)N[C@@H](CCN)C(=O)N(C)[C@@H]1C(=O)N[C@@H](C)C(=O)N[C@H](C(=O)NCC#N)Cc2ccc(OCCN)c(c2)-c2cc1ccc2OCCN` (racemic) [Compound 405, rac-(8S,11S,14S)-3,18-bis(2-aminoethoxy)-N-(cyanomethyl)-11-methyl-14-[methyl-[rac-(2S)-4-amino-2-[[5-amino-6-(4-tert-butylphenyl)-2-methyl-pyridine-3-carbonyl]amino]butanoyl]amino]-10,13-dioxo-9,12-diazatricyclo[13.3.1.12,6]icosa-1(18),2(20),3,5,15(19),16-hexaene-8-carboxamide]: the figures for the MIC in test [1] and in test [2] were 0.38 µM and 0.063 µM, respectively.

On to `Cc1nc(-c2ccc(C(C)(C)C)cc2)c([N+](=O)[O-])cc1C(=O)N[C@@H](CCN)C(=O)N(C)[C@@H]1C(=O)N[C@@H](C)C(=O)N[C@H](C(=O)NCC#N)Cc2ccc(OCCN)c(c2)-c2cc1ccc2OCCN` (racemic) [Compound 406, rac-(8S,11S,14S)-3,18-bis(2-aminoethoxy)-N-(cyanomethyl)-11-methyl-14-[methyl-[rac-(2S)-4-amino-2-[[6-(4-tert-butylphenyl)-2-methyl-5-nitro-pyridine-3-carbonyl]amino]butanoyl]amino]-10,13-dioxo-9,12-diazatricyclo[13.3.1.12,6]icosa-1(18),2(20),3,5,15(19),16-hexaene-8-carboxamide], for which the MIC turned out to be 0.25 µM in test [1] and 0.023 µM in test [2].

Regarding `Cc1nc(-c2ccc(C(C)(C)C)cc2)c(Cl)cc1C(=O)N[C@@H](CCN)C(=O)N(C)[C@@H]1C(=O)N[C@@H](C)C(=O)N[C@H](C(=O)NCC#N)Cc2ccc(OCCN)c(c2)-c2cc1ccc2OCCN` (racemic) [Compound 407, rac-(8S,11S,14S)-3,18-bis(2-aminoethoxy)-N-(cyanomethyl)-11-methyl-14-[methyl-[rac-(2S)-4-amino-2-[[6-(4-tert-butylphenyl)-5-chloro-2-methyl-pyridine-3-carbonyl]amino]butanoyl]amino]-10,13-dioxo-9,12-diazatricyclo[13.3.1.12,6]icosa-1(18),2(20),3,5,15(19),16-hexaene-8-carboxamide], the MIC was 0.13 µM in test [1] and 0.016 µM in test [2].

For `Cc1nc(-c2ccc(C(C)(C)C)cc2)c(N(C)C)cc1C(=O)N[C@@H](CCN)C(=O)N(C)[C@@H]1C(=O)N[C@@H](C)C(=O)N[C@H](C(=O)NCC#N)Cc2ccc(OCCN)c(c2)-c2cc1ccc2OCCN` (racemic) [Compound 408, rac-(8S,11S,14S)-3,18-bis(2-aminoethoxy)-N-(cyanomethyl)-11-methyl-14-[methyl-[rac-(2S)-4-amino-2-[[6-(4-tert-butylphenyl)-5-(dimethylamino)-2-methyl-pyridine-3-carbonyl]amino]butanoyl]amino]-10,13-dioxo-9,12-diazatricyclo[13.3.1.12,6]icosa-1(18),2(20),3,5,15(19),16-hexaene-8-carboxamide], the results for the minimum inhibitory concentration (MIC) in test [1] and in test [2] were 0.38 µM and 0.023 µM, respectively.

As to `CNc1cc(C(=O)N[C@@H](CCN)C(=O)N(C)[C@@H]2C(=O)N[C@@H](C)C(=O)N[C@H](C(=O)NCC#N)Cc3ccc(OCCN)c(c3)-c3cc2ccc3OCCN)c(C)nc1-c1ccc(C(C)(C)C)cc1` (racemic) [Compound 409, rac-(8S,11S,14S)-3,18-bis(2-aminoethoxy)-N-(cyanomethyl)-11-methyl-14-[methyl-[rac-(2S)-4-amino-2-[[6-(4-tert-butylphenyl)-2-methyl-5-(methylamino)pyridine-3-carbonyl]amino]butanoyl]amino]-10,13-dioxo-9,12-diazatricyclo[13.3.1.12,6]icosa-1(18),2(20),3,5,15(19),16-hexaene-8-carboxamide], the results for the minimum inhibitory concentration (MIC) in test [1] and in test [2] were 0.75 µM and 0.13 µM, respectively.

Take `C[C@@H]1NC(=O)[C@@H](N(C)C(=O)[C@H](CCN)NC(=O)c2cnc(-c3ccc(C(C)(C)C)cc3)cc2N)c2ccc(OCCN)c(c2)-c2cc(ccc2OCCN)C[C@@H](C(=O)NCC#N)NC1=O` (racemic) [Compound 411, rac-(8S,11S,14S)-3,18-bis(2-aminoethoxy)-N-(cyanomethyl)-11-methyl-14-[methyl-[rac-(2S)-4-amino-2-[[4-amino-6-(4-tert-butylphenyl)pyridine-3-carbonyl]amino]butanoyl]amino]-10,13-dioxo-9,12-diazatricyclo[13.3.1.12,6]icosa-1(18),2(20),3,5,15(19),16-hexaene-8-carboxamide]: the MIC was determined as 0.25 µM in test [1] and 0.016 µM in test [2].

`C[C@@H]1NC(=O)[C@@H](N(C)C(=O)[C@H](CCN)NC(=O)c2ccc(-c3ccc(C(C)(C)C)cc3)nc2N)c2ccc(OCCN)c(c2)-c2cc(ccc2OCCN)C[C@@H](C(=O)NCC#N)NC1=O` (racemic) [Compound 412, rac-(8S,11S,14S)-3,18-bis(2-aminoethoxy)-N-(cyanomethyl)-11-methyl-14-[methyl-[rac-(2S)-4-amino-2-[[2-amino-6-(4-tert-butylphenyl)pyridine-3-carbonyl]amino]butanoyl]amino]-10,13-dioxo-9,12-diazatricyclo[13.3.1.12,6]icosa-1(18),2(20),3,5,15(19),16-hexaene-8-carboxamide]: the MIC in test [1] was 0.5 µM; in test [2], 0.023 µM.

As for `Cc1nc(-c2ccc(C(C)(C)C)cc2)cc(N)c1C(=O)N[C@@H](CCN)C(=O)N(C)[C@@H]1C(=O)N[C@@H](C)C(=O)N[C@H](C(=O)NCC#N)Cc2ccc(OCCN)c(c2)-c2cc1ccc2OCCN` (racemic) [Compound 413, rac-(8S,11S,14S)-3,18-bis(2-aminoethoxy)-N-(cyanomethyl)-11-methyl-14-[methyl-[rac-(2S)-4-amino-2-[[4-amino-6-(4-tert-butylphenyl)-2-methyl-pyridine-3-carbonyl]amino]butanoyl]amino]-10,13-dioxo-9,12-diazatricyclo[13.3.1.12,6]icosa-1(18),2(20),3,5,15(19),16-hexaene-8-carboxamide], the minimum inhibitory concentration (MIC) in test [1] stood at 0.13 µM; in test [2], 0.016 µM.

On to `Cc1cc(-c2ccc(C(C)(C)C)cc2)nc(N)c1C(=O)N[C@@H](CCN)C(=O)N(C)[C@@H]1C(=O)N[C@@H](C)C(=O)N[C@H](C(=O)NCC#N)Cc2ccc(OCCN)c(c2)-c2cc1ccc2OCCN` (racemic) [Compound 414, rac-(8S,11S,14S)-3,18-bis(2-aminoethoxy)-N-(cyanomethyl)-11-methyl-14-[methyl-[rac-(2S)-4-amino-2-[[2-amino-6-(4-tert-butylphenyl)-4-methyl-pyridine-3-carbonyl]amino]butanoyl]amino]-10,13-dioxo-9,12-diazatricyclo[13.3.1.12,6]icosa-1(18),2(20),3,5,15(19),16-hexaene-8-carboxamide], for which the MIC stood at 0.25 µM in test [1] and 0.016 µM in test [2].

For `C[C@@H]1NC(=O)[C@@H](N(C)C(=O)[C@H](CCN)NC(=O)c2cc(N)c(-c3ccc(C(C)(C)C)cc3)nc2N)c2ccc(OCCN)c(c2)-c2cc(ccc2OCCN)C[C@@H](C(=O)NCC#N)NC1=O` (racemic) [Compound 416, rac-(8S,11S,14S)-3,18-bis(2-aminoethoxy)-N-(cyanomethyl)-11-methyl-14-[methyl-[rac-(2S)-4-amino-2-[[2,5-diamino-6-(4-tert-butylphenyl)pyridine-3-carbonyl]amino]butanoyl]amino]-10,13-dioxo-9,12-diazatricyclo[13.3.1.12,6]icosa-1(18),2(20),3,5,15(19),16-hexaene-8-carboxamide], the figures for the MIC in test [1] and in test [2] were 3 µM and 0.094 µM, respectively.

As for `CCc1nc(-c2ccc(CC(C)C)cc2)ncc1C(=O)N[C@@H](CCN)C(=O)N(C)[C@@H]1C(=O)N[C@@H](C)C(=O)N[C@H](C(=O)NCC#N)Cc2ccc(OCCN)c(c2)-c2cc1ccc2OCCN` (racemic) [Compound 417, rac-(8S,11S,14S)-3,18-bis(2-aminoethoxy)-N-(cyanomethyl)-11-methyl-14-[methyl-[rac-(2S)-4-amino-2-[[4-ethyl-2-(4-isobutylphenyl)pyrimidine-5-carbonyl]amino]butanoyl]amino]-10,13-dioxo-9,12-diazatricyclo[13.3.1.12,6]icosa-1(18),2(20),3,5,15(19),16-hexaene-8-carboxamide], the minimal inhibitory concentration (MIC) in test [1] came to 0.13 µM; in test [2], 0.0062 µM.

Consider `C[C@@H]1NC(=O)[C@@H](N(C)C(=O)[C@H](CCN)NC(=O)c2cnc(-c3ccc(C(C)(C)C)cc3)nc2O)c2ccc(OCCN)c(c2)-c2cc(ccc2OCCN)C[C@@H](C(=O)NCC#N)NC1=O` (racemic) [Compound 419, rac-(8S,11S,14S)-3,18-bis(2-aminoethoxy)-N-(cyanomethyl)-11-methyl-14-[methyl-[rac-(2S)-4-amino-2-[[2-(4-tert-butylphenyl)-4-hydroxy-pyrimidine-5-carbonyl]amino]butanoyl]amino]-10,13-dioxo-9,12-diazatricyclo[13.3.1.12,6]icosa-1(18),2(20),3,5,15(19),16-hexaene-8-carboxamide], for which the minimum inhibitory concentration (MIC) in test [1] was 8 µM; in test [2], 0.063 µM.

As usually defined, the MIC is the least concentration at which growth counts as inhibited.

Values taken from patent US20260274892A1, “MACROCYCLIC BROAD SPECTRUM ANTIBIOTICS” (RQx Pharmaceuticals, Inc., priority 2017, published 2026).
